Results reported in PubChem BioAssay AID330 (DTP/NCI, 2004).
“And” between values parts separate entries of the source, which are not always exact repeats. Equal values may be shown once. Toxic doses and inconclusive results are not listed. The calls were made as follows: active = survival T/C of 150% or more; inactive = T/C below 125% in these data.

Tested on: P388 leukemia ip, CD2F1 mice, survival T/C
Assay: NCI In Vivo Anticancer Drug Screen. Data for tumor model P388 Leukemia (intraperitoneal) in CD2F1 (CDF1) mice
Details: endpoint: median survival time, higher = longer survival
Procedure, shortened: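 Mice carrying the transplanted tumor received test compound or vehicle. Survival was recorded in each group, and the value is the treated-group measurement divided by that of the vehicle-treated control group.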

[1] = dose: 50.0 mg/kg/injection, schedule: Q01DX005 (ip), vehicle: saline with Tween-80
[2] = dose: 100.0 mg/kg/injection, schedule: Q01DX005 (ip), vehicle: saline with Tween-80
[3] = dose: 200.0 mg/kg/injection, schedule: Q01DX005 (ip), vehicle: saline with Tween-80
[4] = dose: 25.0 mg/kg/injection, schedule: Q01DX009 (ip), vehicle: Klucel (hydroxypropylcellulose) (HPC)
[5] = dose: 50.0 mg/kg/injection, schedule: Q01DX009 (ip), vehicle: Klucel (hydroxypropylcellulose) (HPC)
[6] = dose: 100.0 mg/kg/injection, schedule: Q01DX009 (ip), vehicle: Klucel (hydroxypropylcellulose) (HPC)
[7] = dose: 200.0 mg/kg/injection, schedule: Q01DX009 (ip), vehicle: Klucel (hydroxypropylcellulose) (HPC)
[8] = dose: 60.0 mg/kg/injection, schedule: Q01DX005 (ip), vehicle: saline with Tween-80
[9] = dose: 120.0 mg/kg/injection, schedule: Q01DX005 (ip), vehicle: saline with Tween-80
[10] = dose: 240.0 mg/kg/injection, schedule: Q01DX005 (ip), vehicle: saline with Tween-80
[11] = dose: 100.0 mg/kg/injection, schedule: Q04DX003 (ip), vehicle: saline with Tween-80
[12] = dose: 50.0 mg/kg/injection, schedule: Q01DX009 (ip), vehicle: saline
[13] = dose: 100.0 mg/kg/injection, schedule: Q01DX009 (ip), vehicle: saline
[14] = dose: 200.0 mg/kg/injection, schedule: Q01DX009 (ip), vehicle: saline

Measured: T/C

Cc1nc(Nc2ccccc2)c2c(C)c[nH]c2n1
inactive: dose: 50.0 mg/kg/injection, schedule: Q01DX005 (ip), vehicle: Klucel (hydroxypropylcellulose) (HPC) 100 % of control | dose: 100.0 mg/kg/injection, schedule: Q01DX005 (ip), vehicle: Klucel (hydroxypropylcellulose) (HPC) 94 % of control

C/C(=N\NC(=S)N1CC2CCC(CC2)C1)c1cccc(C)n1
inactive: dose: 6.25 mg/kg/injection, schedule: Q01DX005 (ip), vehicle: saline with Tween-80 102 % of control and 114 % of control | dose: 12.5 mg/kg/injection, schedule: Q01DX005 (ip), vehicle: saline with Tween-80 112 % of control

Cc1ccc(S(=O)(=O)CC(=O)CC(=O)C(=O)NC2C3CC4CC(C3)CC2C4)cc1 (configuration not stated)
inactive: [1] 98 % of control | [2] 90 % of control | [3] 90 % of control

C[N+]1(Cc2ccccc2)CCCC(O)C1 (configuration not stated)
inactive: dose: 7.5 mg/kg/injection, schedule: Q01DX005 (ip), vehicle: saline with Tween-80 101 % of control | dose: 15.0 mg/kg/injection, schedule: Q01DX005 (ip), vehicle: saline with Tween-80 93 % of control | dose: 30.0 mg/kg/injection, schedule: Q01DX005 (ip), vehicle: saline with Tween-80 99 % of control

COc1ccc2c(Cl)ccnc2c1OC
inactive: [1] 99 % of control | [2] 107 % of control

O=c1nc(-c2ccco2)sc(=O)[nH]1
inactive: [4] 109 % of control | [5] 106 % of control and 117 % of control | [6] 113 % of control | [7] 105 % of control and 121 % of control

Cc1[nH]c(N)nc(=S)c1CCCOc1ccc([N+](=O)[O-])cc1
inactive: [8] 99 % of control | [9] 93 % of control | [10] 97 % of control

Cc1cc(-c2c(C)[nH]n(-c3cc(C)c4cc(F)ccc4n3)c2=O)n(-c2cc(C)c3cc(F)ccc3n2)n1
inactive: [8] 102 % of control | [9] 101 % of control | [10] 98 % of control

COc1cc2cc3c4cc(OC)c(OC)cc4cc[n+]3c(CCC(=O)O)c2cc1OC
inactive: dose: 100.0 mg/kg/injection, schedule: Q01DX009 (ip), vehicle: saline with Tween-80 96 % of control | dose: 200.0 mg/kg/injection, schedule: Q01DX009 (ip), vehicle: saline with Tween-80 96 % of control | dose: 400.0 mg/kg/injection, schedule: Q01DX009 (ip), vehicle: saline with Tween-80 94 % of control

O=C(O)c1cn2cccnc2n1
inactive: dose: 100.0 mg/kg/injection, schedule: Q01DX001 (ip), vehicle: Klucel (hydroxypropylcellulose) (HPC) 100 % of control | dose: 200.0 mg/kg/injection, schedule: Q01DX001 (ip), vehicle: Klucel (hydroxypropylcellulose) (HPC) 98 % of control | dose: 400.0 mg/kg/injection, schedule: Q01DX001 (ip), vehicle: Klucel (hydroxypropylcellulose) (HPC) 99 % of control

Cc1cc(C)cc(C(C)(C)C)c1
inactive: [11] 100 % of control | dose: 200.0 mg/kg/injection, schedule: Q04DX003 (ip), vehicle: saline with Tween-80 100 % of control

CCc1nnc(NC(=S)NC(=O)OC)s1
inactive: dose: 25.0 mg/kg/injection, schedule: Q04DX003 (ip), vehicle: saline with Tween-80 100 % of control | dose: 50.0 mg/kg/injection, schedule: Q04DX003 (ip), vehicle: saline with Tween-80 105 % of control | [11] 105 % of control

CN(C)c1ccc(/C(O)=C\c2ncnc3ccccc23)cc1
inactive: [8] 94 % of control | [9] 94 % of control | [10] 93 % of control

CCN(CC)CCNc1cc(O)c2c(c1O)C(=O)c1ccccc1C2=O
inactive: dose: 25.0 mg/kg/injection, schedule: Q04DX002 (ip), vehicle: saline with Tween-80 105 % of control | dose: 50.0 mg/kg/injection, schedule: Q04DX002 (ip), vehicle: saline with Tween-80 98 % of control | dose: 100.0 mg/kg/injection, schedule: Q04DX002 (ip), vehicle: saline with Tween-80 103 % of control and 107 % of control

N=C(N)n1ncc2c1CCCC2=O
inactive: [8] 100 % of control | [9] 105 % of control | [10] 96 % of control

CC1(C)N=C(c2ccccc2)C(c2ccccc2)=NC1(C)C
inactive: dose: 100.0 mg/kg/injection, schedule: Q04DX002 (ip), vehicle: saline 101 % of control | dose: 200.0 mg/kg/injection, schedule: Q04DX002 (ip), vehicle: saline 98 % of control | dose: 400.0 mg/kg/injection, schedule: Q04DX002 (ip), vehicle: saline 104 % of control

Nn1cn[nH]c1=S
inactive: dose: 25.0 mg/kg/injection, schedule: Q01DX009 (ip), vehicle: saline 100 % of control | [12] 97 % of control | [13] 98 % of control | [14] 100 % of control

Cn1c(=O)[nH]c2nncnc2c1=O
inactive: dose: 2.0 mg/kg/injection, schedule: Q01DX009 (ip), vehicle: water 101 % of control | dose: 4.0 mg/kg/injection, schedule: Q01DX009 (ip), vehicle: water 100 % of control | dose: 8.0 mg/kg/injection, schedule: Q01DX009 (ip), vehicle: water 104 % of control | dose: 12.5 mg/kg/injection, schedule: Q01DX009 (ip), vehicle: water 99 % of control | dose: 16.0 mg/kg/injection, schedule: Q01DX009 (ip), vehicle: water 101 % of control | dose: 25.0 mg/kg/injection, schedule: Q01DX009 (ip), vehicle: water 117 % of control | dose: 32.0 mg/kg/injection, schedule: Q01DX009 (ip), vehicle: water 104 % of control | dose: 64.0 mg/kg/injection, schedule: Q01DX009 (ip), vehicle: water 123 % of control | dose: 375.0 micrograms/kg/injection, schedule: Q01DX009 (ip), vehicle: saline 97 % of control | dose: 750.0 micrograms/kg/injection, schedule: Q01DX009 (ip), vehicle: saline 100 % of control | dose: 1500.0 micrograms/kg/injection, schedule: Q01DX009 (ip), vehicle: saline 91 % of control | dose: 3000.0 micrograms/kg/injection, schedule: Q01DX009 (ip), vehicle: saline 100 % of control

COc1ccc(C2CC(=O)N(c3cccc(C)n3)C(=O)C2)cc1
inactive: dose: 100.0 mg/kg/injection, schedule: Q04DX003 (ip), vehicle: saline 100 % of control | dose: 200.0 mg/kg/injection, schedule: Q04DX003 (ip), vehicle: saline 100 % of control | dose: 400.0 mg/kg/injection, schedule: Q04DX003 (ip), vehicle: saline 108 % of control

N#Cc1c(-c2ccccc2Cl)c(-c2ccccc2Cl)nn(CCO)c1=O
inactive: dose: 25.0 mg/kg/injection, schedule: Q04DX002 (ip), vehicle: distilled water + Tween-80 99 % of control | dose: 50.0 mg/kg/injection, schedule: Q04DX002 (ip), vehicle: distilled water + Tween-80 100 % of control | dose: 100.0 mg/kg/injection, schedule: Q04DX002 (ip), vehicle: distilled water + Tween-80 91 % of control | dose: 200.0 mg/kg/injection, schedule: Q04DX002 (ip), vehicle: distilled water + Tween-80 101 % of control

N#CC(C(=O)C(=O)Nc1cccc(Cl)c1)c1ccccc1 (configuration not stated)
inactive: [1] 109 % of control | [2] 104 % of control | [3] 99 % of control

CC1=C(CCC(C)NCc2ccc(OCCCN3CCCCC3)cc2)C(C)(C)CCC1 (configuration not stated)
inactive: dose: 6.25 mg/kg/injection, schedule: Q01DX005 (ip), vehicle: Klucel (hydroxypropylcellulose) (HPC) 104 % of control | dose: 12.5 mg/kg/injection, schedule: Q01DX005 (ip), vehicle: Klucel (hydroxypropylcellulose) (HPC) 98 % of control | dose: 25.0 mg/kg/injection, schedule: Q01DX005 (ip), vehicle: Klucel (hydroxypropylcellulose) (HPC) 104 % of control

C(=N\NC1=NCCN1)/c1ccc(-c2cn3cc(/C=N/NC4=NCCN4)ccc3n2)cc1
inactive: [8] 112 % of control

CSc1nc2[nH]ncc2c(=O)[nH]1
inactive: [4] 101 % of control | [5] 99 % of control | [6] 93 % of control | [7] 86 % of control

Clc1ccc(CN2COc3c(ccc4ccccc34)C2)cc1
inactive: dose: 100.0 mg/kg/injection, schedule: Q04DX003 (ip), vehicle: Klucel (hydroxypropylcellulose) (HPC) 103 % of control | dose: 200.0 mg/kg/injection, schedule: Q04DX003 (ip), vehicle: Klucel (hydroxypropylcellulose) (HPC) 94 % of control | dose: 400.0 mg/kg/injection, schedule: Q04DX003 (ip), vehicle: Klucel (hydroxypropylcellulose) (HPC) 94 % of control

CC(=O)Nc1ccc(/C=N/NC(=O)CNC(=O)c2ccccc2)cc1
inactive: [8] 95 % of control | [9] 86 % of control

CCOC(OCC)/C(=C\N(C)C)N=C(C#N)C#N
inactive: [1] 113 % of control | [2] 111 % of control

CCO/C=N/NC(=O)c1n[nH]c2ccccc12
inactive: [1] 106 % of control | [2] 100 % of control | [3] 106 % of control

O=c1[nH]c(=S)cnn1C1OC(CO)C(O)C1O (configuration not stated)
inactive: [12] 106 % of control | [13] 94 % of control | [14] 101 % of control
